Assays:
[1] = system: IL-1β mice and C57BL/6J mice infected with Helicobacter felis; assay: IL-1RA treatment of bone marrow transplanted, Helicobacter felis infected mice; assay type: in vivo, mouse; details: hIL-1RA by osmotic minipump, 100 mg/kg/day for 30 days; eight weeks after H. felis infection
Source text: Bone marrow transplantation, and Helicobacter felis infection and IL-RA treatment. Bone marrow was isolated from the femurs and tibias of 6-8 week old C57BL/6-TgN [ACThEGFP] (GFP) mice. Total bone marrow was washed, triturated using a 20 gauge needle and passed through a 40 sum nylon mesh cell strainer (Becton Dickson) to produce a single cell suspension in PBS. Recipient IL-β mice and C57BL/6J mice were irradiated with 900 rads from a cesium 137-gamma cell irradiator, reconstituted with 3×10^6 donor marrow cells via a single tail vein injection, and used for experiments after 2 weeks of recovery. The overall level of engraftment was 60-80% as assessed by analysis of β-galactosidase or GFP in peripheral leukocytes. Non-transplanted IL-β mice and C57BL/6 mice served as controls for all injury models. Helicobacter felis (strain 49179) was obtained from the […] (Rockville, Md.), grown as recommended and bacteria enumerated as previously described (Houghton 2004). Two weeks after transplantation, mice were infected by oral gavage with 1×10^7 colony forming units every other day for 3 days. […]
Single cell preparation and FACS analysis. […] All single cell suspensions were stained with FITC-labeled anti-CD34, PE-labeled […] as well as Cy5-labeled anti-CD3 and anti-B220 antibodies (Pharmingen) and analyzed using a FACScan™ flow cytometer. […]

B16 melanoma = details: murine B16 model, cited from earlier work
fibrosarcoma = details: control mice, systemic treatments; cited from earlier work
[2] = system: tumor development induced by IL-1; details: release of 25 ng per day from microencapsulated cells, mice; cited from earlier work
[3] = system: C57BL/6J mice and Balb/c mice; assay: Continuous infusion of IL-1β into mice (preliminary experiment); assay type: in vivo, mouse; details: continuous infusion (13 days)

Molecule: IL-1RA: IL-1 receptor antagonist; binds IL-1 receptor type I without transmitting an activation signal
- development of gastritis [1]: reduces
- mobilization of hematopoietic stem cells circulation and stomach tissues [1]: reduces
- metastases (B16 melanoma): reduced
- survival rates (B16 melanoma): increased
- fibrosarcoma growth (fibrosarcoma): inhibited
- angiogenesis [2]: reduced
- tumor development [2]: inhibited

B1: IL-1β: proinflammatory pleiotropic cytokine, infused or injected into mice (protein, UniProt P10749 118-269, looked up)
Interleukin-1 beta: VPIRQLHYRLRDEQQKSLVLSDPYELKALHLNGQNINQQVIFSMSFVQGEPSNDKIPVALGLKGKNLYLSCVMKDGTPTLQLESVDPKQYPKKKMEKRFVFNKIEVKSKVEFESAEFPNWYISTSQAEHKPVFLGNNSGQDIIDFTMESVSS
- liver metastasis (B16 melanoma; intrasplenic injection): increased
- gastric atrophy [3]: caused gastric atrophy

From US20070061899A1, “Transgenic mammal with constitutive, tissue-specific cytokine expression and use as a cancer model” (THE TRUSTEES OF COLUMBIA UNIVERSITY IN THE CITY OF NEW YORK, priority 2005, published 2007)
